Square brackets hold non-standard residues; d marks the D form. Peptide text beside a SMILES is read from it.
Columns and labels:
[1] = inhibitory activity of compound using pentapeptide cell-wall peptidoglycan (PG) substrates
[2] = Ratio of Kcat to Kuncat was determined
[3] = Kcat value was determined
[4] = Ratio of Kcat to Km was determined
[5] = Km value was determined

Row | SMILES | Ki [1] [mM] | Ratio [2] | k cat [3] [s⁻¹] | Ratio [4] | Km [5] [µM]
1 | CC(=O)NCCCC[C@H](NC(C)=O)C(=O)N[C@H](C)C(=O)N[C@H](C)C(=O)O (Ac-Lys(Ac)-[dA]-[dA]-OH) | 13 |  |  |  | 
2 | CC(=O)NCCCC[C@H](NC(=O)CCNC(=O)CCCC(=O)ON1C(=O)CCC1=O)C(=O)N[C@H](C)P(=O)(O)O[C@H](C)C(=O)O | < 0.16 | 530 | 3.33e-05 | 0.921 | 2170

From ChEMBL document CHEMBL1135238, “Antibody-catalyzed cleavage of the D-Ala-D-Lac depsipeptide: an immunological approach to the problem of vancomycin resistance” (Bioorg Med Chem Lett, 2002)
